According to PubChem BioAssay (NCI):
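In this assay, cells in 96-well plates receive the compound at five concentrations for 48 hours. Endpoints are linearly interpolated between the surrounding concentrations. GI50 = concentration required for 50% inhibition of growth. TGI marks complete inhibition of growth.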

Tests used:
Experiment in all cases: NCI tumour cell line growth inhibition, 48 h
MDA-MB-231 breast = test system: MDA-MB-231 breast
SNB-75 CNS = test system: SNB-75 CNS
NCI-H23 lung = test system: NCI-H23 lung
ACHN renal = test system: ACHN renal
U251 CNS = test system: U251 CNS
SF-295 CNS = test system: SF-295 CNS
BT-549 breast = test system: BT-549 breast
UACC-62 melanoma = test system: UACC-62 melanoma
RXF 393 renal = test system: RXF 393 renal
HCT-116 colon = test system: HCT-116 colon
K-562 leukemia = test system: K-562 leukemia
HOP-62 NSCLC = test system: HOP-62 NSCLC
RPMI-8226 leukemia = test system: RPMI-8226 leukemia
SK-OV-3 ovarian = test system: SK-OV-3 ovarian
NCI-H226 lung = test system: NCI-H226 lung
MALME-3M melanoma = test system: MALME-3M melanoma
SF-268 CNS = test system: SF-268 CNS
A498 renal = test system: A498 renal
MOLT-4 leukemia = test system: MOLT-4 leukemia
SW-620 colon = test system: SW-620 colon
HOP-92 NSCLC = test system: HOP-92 NSCLC
HL-60(TB) leukemia = test system: HL-60(TB) leukemia
CCRF-CEM leukemia = test system: CCRF-CEM leukemia
PC-3 prostate = test system: PC-3 prostate
DU-145 prostate = test system: DU-145 prostate
EKVX NSCLC = test system: EKVX NSCLC
UO-31 renal = test system: UO-31 renal
CAKI-1 renal = test system: CAKI-1 renal
786-0 renal = test system: 786-0 renal
SNB-19 CNS = test system: SNB-19 CNS
MDA-MB-435 = test system: MDA-MB-435
MCF7 breast = test system: MCF7 breast
HCC-2998 colon = test system: HCC-2998 colon
SK-MEL-28 melanoma = test system: SK-MEL-28 melanoma
MDA-MB-468 breast = test system: MDA-MB-468 breast
M14 melanoma = test system: M14 melanoma
OVCAR-4 ovarian = test system: OVCAR-4 ovarian
COLO 205 colon = test system: COLO 205 colon
KM12 colon = test system: KM12 colon
HS 578T breast = test system: HS 578T breast
SK-MEL-5 melanoma = test system: SK-MEL-5 melanoma
HT29 colon = test system: HT29 colon
HCT-15 colon = test system: HCT-15 colon
SK-MEL-2 melanoma = test system: SK-MEL-2 melanoma
SR leukemia = test system: SR leukemia
A549 NSCLC = test system: A549 NSCLC
NCI/ADR-RES ovarian = test system: NCI/ADR-RES ovarian
T-47D breast = test system: T-47D breast
OVCAR-8 ovarian = test system: OVCAR-8 ovarian
OVCAR-3 ovarian = test system: OVCAR-3 ovarian
IGROV1 ovarian = test system: IGROV1 ovarian
SN12C renal = test system: SN12C renal
SF-539 CNS = test system: SF-539 CNS
NCI-H460 lung = test system: NCI-H460 lung
UACC-257 melanoma = test system: UACC-257 melanoma
OVCAR-5 ovarian = test system: OVCAR-5 ovarian
TK-10 renal = test system: TK-10 renal

`Nc1cc(-c2c[nH]c3ccc(F)cc23)nc2cc(-c3c[nH]c4ccccc34)nn12` showed a GI50 (MDA-MB-231 breast) of 2 µM, a TGI (MDA-MB-231 breast) of 3.84 µM and a GI50 (SNB-75 CNS) of 2.88 µM. For the same molecule, the TGI (SNB-75 CNS) was 14.6 µM, the GI50 (NCI-H23 lung) was 3.8 µM and the TGI (NCI-H23 lung) was 17.7 µM. It also gave a GI50 (ACHN renal) of 3.22 µM, a TGI (ACHN renal) of 10.9 µM and a GI50 (U251 CNS) of 3.53 µM. For the same molecule, the TGI (U251 CNS) was 14.1 µM, the GI50 (SF-295 CNS) was 1.86 µM and the TGI (SF-295 CNS) was 4.04 µM. For the same molecule, the GI50 (BT-549 breast) was 8.6 µM, the TGI (BT-549 breast) was 20.8 µM and the GI50 (UACC-62 melanoma) was 6.03 µM. For the same molecule, the TGI (UACC-62 melanoma) was 19.3 µM, the GI50 (RXF 393 renal) was 2.19 µM and the TGI (RXF 393 renal) was 7.82 µM. The GI50 (HCT-116 colon) was 1.91 µM, the TGI (HCT-116 colon) was 4.1 µM and the GI50 (K-562 leukemia) was 2.15 µM. The TGI (K-562 leukemia) was 6.12 µM, the GI50 (HOP-62 NSCLC) was 4.55 µM and the TGI (HOP-62 NSCLC) was 21.8 µM. It also gave a GI50 (RPMI-8226 leukemia) of 2.64 µM, a TGI (RPMI-8226 leukemia) of 8.15 µM and a GI50 (SK-OV-3 ovarian) of 10.1 µM. The TGI (SK-OV-3 ovarian) was 23 µM, the GI50 (NCI-H226 lung) was 5.57 µM and the TGI (NCI-H226 lung) was 32.6 µM. It also gave a GI50 (MALME-3M melanoma) of 2.24 µM, a TGI (MALME-3M melanoma) of 4.79 µM and a GI50 (SF-268 CNS) of 4.15 µM. It also gave a TGI (SF-268 CNS) of 21.7 µM, a GI50 (A498 renal) of 2.8 µM and a TGI (A498 renal) of 11.3 µM. The GI50 (MOLT-4 leukemia) was 2.44 µM, the TGI (MOLT-4 leukemia) was 6.87 µM and the GI50 (SW-620 colon) was 2.11 µM. The TGI (SW-620 colon) was 4.22 µM, the GI50 (HOP-92 NSCLC) was 2.42 µM and the TGI (HOP-92 NSCLC) was 7.09 µM. For the same molecule, the GI50 (HL-60(TB) leukemia) was 2.18 µM, the TGI (HL-60(TB) leukemia) was 9.55 µM and the GI50 (CCRF-CEM leukemia) was 2.65 µM. For the same molecule, the TGI (CCRF-CEM leukemia) was 8.01 µM, the GI50 (PC-3 prostate) was 3.18 µM and the TGI (PC-3 prostate) was 12.2 µM. For the same molecule, the GI50 (DU-145 prostate) was 4.3 µM, the TGI (DU-145 prostate) was 15.3 µM and the GI50 (EKVX NSCLC) was 3.49 µM. For the same molecule, the TGI (EKVX NSCLC) was 14.9 µM, the GI50 (UO-31 renal) was 3.02 µM and the TGI (UO-31 renal) was 12.7 µM. It also gave a GI50 (CAKI-1 renal) of 2.74 µM, a TGI (CAKI-1 renal) of 12.4 µM and a GI50 (786-0 renal) of 1.49 µM. It also gave a TGI (786-0 renal) of 2.93 µM, a GI50 (SNB-19 CNS) of 4.59 µM and a TGI (SNB-19 CNS) of 18.9 µM. For the same molecule, the GI50 (MDA-MB-435) was 3.67 µM, the TGI (MDA-MB-435) was 15.2 µM and the GI50 (MCF7 breast) was 2.54 µM. The TGI (MCF7 breast) was 8.12 µM, the GI50 (HCC-2998 colon) was 2.02 µM and the TGI (HCC-2998 colon) was 4.14 µM. It also gave a GI50 (SK-MEL-28 melanoma) of 2.96 µM, a TGI (SK-MEL-28 melanoma) of 9.82 µM and a GI50 (MDA-MB-468 breast) of 1.7 µM. It also gave a TGI (MDA-MB-468 breast) of 4.3 µM, a GI50 (M14 melanoma) of 1.98 µM and a TGI (M14 melanoma) of 4.21 µM. The GI50 (OVCAR-4 ovarian) was 4.2 µM, the TGI (OVCAR-4 ovarian) was 18.9 µM and the GI50 (COLO 205 colon) was 1.6 µM. For the same molecule, the TGI (COLO 205 colon) was 3.2 µM, the GI50 (KM12 colon) was 2.35 µM and the TGI (KM12 colon) was 5.79 µM. It also gave a GI50 (HS 578T breast) of 3.73 µM, a TGI (HS 578T breast) of 20.5 µM and a GI50 (SK-MEL-5 melanoma) of 3.79 µM. The TGI (SK-MEL-5 melanoma) was 13.6 µM, the GI50 (HT29 colon) was 2.09 µM and the TGI (HT29 colon) was 4.72 µM. It also gave a GI50 (HCT-15 colon) of 1.71 µM, a TGI (HCT-15 colon) of 3.69 µM and a GI50 (SK-MEL-2 melanoma) of 3.96 µM. It also gave a TGI (SK-MEL-2 melanoma) of 15.1 µM, a GI50 (SR leukemia) of 2.09 µM and a TGI (SR leukemia) of 8.42 µM. It also gave a GI50 (A549 NSCLC) of 3.81 µM, a TGI (A549 NSCLC) of 20.5 µM and a GI50 (NCI/ADR-RES ovarian) of 3.82 µM. The TGI (NCI/ADR-RES ovarian) was 19.3 µM, the GI50 (T-47D breast) was 3.54 µM and the TGI (T-47D breast) was 20.9 µM. For the same molecule, the GI50 (OVCAR-8 ovarian) was 4.3 µM, the TGI (OVCAR-8 ovarian) was 26.7 µM and the GI50 (OVCAR-3 ovarian) was 4.17 µM. It also gave a TGI (OVCAR-3 ovarian) of 16.9 µM, a GI50 (IGROV1 ovarian) of 4.26 µM and a TGI (IGROV1 ovarian) of 17.6 µM. It also gave a GI50 (SN12C renal) of 6.94 µM, a TGI (SN12C renal) of 21.7 µM and a GI50 (SF-539 CNS) of 2 µM. The TGI (SF-539 CNS) was 4.01 µM, the GI50 (NCI-H460 lung) was 2.27 µM and the TGI (NCI-H460 lung) was 5.37 µM. The GI50 (UACC-257 melanoma) was 4.28 µM, the TGI (UACC-257 melanoma) was 15.2 µM and the GI50 (OVCAR-5 ovarian) was 3.3 µM. The TGI (OVCAR-5 ovarian) was 11.1 µM, the GI50 (TK-10 renal) was 5.54 µM and the TGI (TK-10 renal) was 19.9 µM.
